Results published in US11098026B2, “Fused bicyclic compounds, compositions and applications thereof” (IMPETIS BIOSCIENCES LIMITED, priority 2017, dated 2021).

Target: T1, human GPR91 receptor (Homo sapiens, UniProt Q9BXA5)
T1 construct: expressed in transfected cells; host or cells: CHO-K1 NFAT cells
T1 sequence (Q9BXA5 1-334): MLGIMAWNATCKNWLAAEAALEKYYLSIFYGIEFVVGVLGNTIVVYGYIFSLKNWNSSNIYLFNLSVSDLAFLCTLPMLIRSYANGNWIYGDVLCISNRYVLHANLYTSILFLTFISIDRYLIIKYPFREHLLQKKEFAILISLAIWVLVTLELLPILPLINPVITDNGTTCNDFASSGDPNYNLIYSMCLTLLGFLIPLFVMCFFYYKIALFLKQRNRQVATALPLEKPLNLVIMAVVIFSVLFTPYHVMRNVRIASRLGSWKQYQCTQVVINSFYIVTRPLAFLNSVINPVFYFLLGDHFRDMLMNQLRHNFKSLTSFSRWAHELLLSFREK
Assay: Human GPR91 calcium mobilization assay
Assay type: cell-based
Conditions: CHO-K1 NFAT cells over expressing human GPR91 receptor; Fluo4 AM; agonist sodium succinate; flex station; read-out: hGPR91 IC50 (μM)*
Procedure: Human GPR91 Calcium Mobilization Assay
To determine IC50 in CHO NFAT cells over expressing human GPR91 receptor calcium mobilization assay in flex station mode was carried out.
Grow CHO-K1 NFAT cells over expressing human GPR91 receptors in alpha MEM media were supplemented with 10% FBS (heat inactivated), 0.5 mg/ml of G-418, 0.5 mg/ml of Zeocin and 0.6 mg/ml of Hygromycin B.
The cells were seeded at least 21 hours before the experiment at the density of 25000/well in 96 well plate (Corning cat #no. 3603). It was made sure that cells were at least 95% confluent on the day of assay. No antibiotics were used for seeding purpose.
On the day of assay the media was discarded from plates and plates were washed with 100 μl of HBSS assay buffer. The plates were loaded with Fluo4 AM at 2 μM concentration. Pluronic F-127 dye was solubilized in calcium assay buffer containing 0.1% BSA, i.e., 20 μl dye+20 μl Pluronic F127 for 10 ml. Appropriate amounts of 100× probenecid was added to the loading mixture 1× final (100 μl per 10 ml). Total volume of dye loaded was made 100 μl. The plate was then wrapped in aluminium foil to protect from light and were incubated for 90 mins at 37 degrees in cell culture incubator. At the end of incubation the plates was washed again with 100 μl of HBSS buffer without BSA and 75 μl of HBSS buffer was added (without BSA) to the plate.
Further, 8 point-Dose response curve of the compounds of the present disclosure was prepared in 100% DMSO followed by 57.14-fold dilution to 1.75× in 1.75% DMSO in assay buffer. 100 μL of 1.75×NCE was added to the wells as shown below and incubated at room temp on orbital shaker at 300 rpm for 15 min. Flexstation [excitation @ 485 nm and emission @ 525 nm] for a total time of 60 seconds. 25 μL of 8× agonist (800 μM sodium succinate) was added to each well using the flexstation after establishing the baseline for 20 sec, Measurement—Max-Min over 60 sec. Using the above protocol results obtained are tabulate din the Table 1 below: […]

Q: How did the IC50 turn out when `Cc1nc2ccc(Oc3ccc(Oc4cccc(CC(=O)O)c4)c(C(F)(F)F)c3)cc2n1C1COC1` [Compound A-27, 2-[3-[4-[2-methyl-3-(oxetan-3-yl)benzimidazol-5-yl]oxy-2-(trifluoromethyl)phenoxy]phenyl]acetic acid] was run?
A: < 5 µM

Q: With `Cc1nccc2cccc(Oc3ccc(Oc4cccc(CC(=O)O)c4)c(C(F)(F)F)c3)c12` [Compound A-41, 2-[3-[4-[(1-methyl-8-isoquinolyl)oxy]-2-(trifluoromethyl)phenoxy]phenyl]acetic Acid] as the compound, how does the IC50 read?
A: < 5 µM

Q: How did the IC50 turn out when `O=C(O)Cc1cccc(Oc2ccc(Oc3ccc4ccn(C5COC5)c4n3)cc2C(F)(F)F)c1` [Compound A-30, 2-[3-[4-[1-(oxetan-3-yl)pyrrolo[2,3-b]pyridin-6-yl]oxy-2-(trifluoromethyl)phenoxy]phenyl]acetic acid] was run?
A: > 10 µM

Q: Which IC50 does the source give for `FC(F)(F)c1cc(Oc2cccc3ccncc23)ccc1Oc1cccc(CCc2nnc[nH]2)c1` [Compound D-1, 8-[4-[3-[2-(4H-1,2,4-triazol-3-yl)ethyl]phenoxy]-3-(trifluoromethyl)phenoxy]isoquinoline] here?
A: > 10 µM

Q: `O=C(O)CCc1cccc(Oc2ccc(Oc3cccn4ccnc34)cc2C(F)(F)F)c1` [Compound A-7, 3-[3-[4-imidazo[1,2-a]pyridin-8-yloxy-2-(trifluoromethyl)phenoxy]phenyl]propanoic acid] was tested. Which IC50 did it give?
A: > 10 µM

Q: `O=C(O)Cc1cccc(Oc2ccc(Oc3ccc4nn(C5COC5)cc4c3)cc2C(F)(F)F)c1` [Compound A-24, 2-[3-[4-[2-(oxetan-3-yl)indazol-5-yl]oxy-2-(trifluoromethyl)phenoxy]phenyl]acetic acid] was tested. Which IC50 did it give?
A: > 10 µM

Q: `O=C(O)CCc1cccc(Oc2ccc(OC3CCc4ccccc43)cc2C(F)(F)F)c1` (stereo not shown) [Compound A-44, 3-[3-[4-indan-1-yloxy-2-(trifluoromethyl)phenoxy]phenyl]propanoic acid] was tested. Which IC50 did it give?
A: 5 to 10 µM

Q: How did the IC50 turn out when `O=C(O)Cc1cccc(Oc2ccc(Oc3ccc4ncccc4c3)cc2C(F)(F)F)c1` [Compound A-6, 2-[3-[4-(6-quinolyloxy)-2-(trifluoromethyl)phenoxy]phenyl]acetic acid] was run?
A: 5 to 10 µM

Q: `Cc1nc2ccc(Oc3ccc(Oc4cccc(CC(=O)O)c4)c(C(F)F)c3)cc2n1C1COC1` [Compound A-28, 2-[3-[2-(difluoromethyl)-4-[2-methyl-3-(oxetan-3-yl)benzimidazol-5-yl]oxy-phenoxy]phenyl]acetic acid] was tested. Which IC50 did it give?
A: < 5 µM

Q: `FC(F)(F)c1cc(Oc2cccc3ccncc23)ccc1Oc1cccc(Cc2nnn[nH]2)c1` [Compound D-3, 8-[4-[3-(1H-tetrazol-5-ylmethyl)phenoxy]-3-(trifluoromethyl)phenoxy]isoquinoline] was tested. Which IC50 did it give?
A: 5 to 10 µM

Q: Which IC50 does the source give for `O=C(O)Cc1cccc(Oc2ncc(Oc3cccc4ccncc34)cc2C(F)(F)F)c1` [Compound A-36, 2-[3-[[5-(8-isoquinolyloxy)-3-(trifluoromethyl)-2-pyridyl]oxy]phenyl]acetic acid] here?
A: < 5 µM

Q: With `CN1CCc2cccc(Oc3ccc(Oc4cccc(CCC(=O)O)c4)c(C(F)(F)F)c3)c2C1` [Compound A-10, 3-[3-[4-[(2-methyl-3,4-dihydro-1H-isoquinolin-8-yl)oxy]-2-(trifluoromethyl)phenoxy]phenyl]propanoic acid] as the compound, how does the IC50 read?
A: > 10 µM

Q: Which IC50 does the source give for `O=C(O)Cc1cccc(Oc2ccc(Oc3cccc4cncn34)cc2C(F)(F)F)c1` [Compound B-1, 2-[3-[4-imidazo[1,5-a]pyridin-5-yloxy-2-(trifluoromethyl)phenoxy]phenyl]acetic acid] here?
A: < 5 µM

Q: With `O=C(O)Cc1cccc(Oc2ccc(Oc3ccc(Cl)c4cnncc34)cc2C(F)(F)F)c1` [Compound A-4, 2-[3-[4-(8-chlorophthalazin-5-yl)oxy-2-(trifluoromethyl)phenoxy]phenyl]acetic acid] as the compound, how does the IC50 read?
A: < 5 µM

Q: How did the IC50 turn out when `O=C(O)Cc1cccc(Oc2ccc(Oc3ccc4nnn(C5COC5)c4c3)cc2C(F)(F)F)c1` [Compound A-25, 2-[3-[4-[3-(oxetan-3-yl)benzotriazol-5-yl]oxy-2-(trifluoromethyl)phenoxy]phenyl]acetic acid] was run?
A: < 5 µM

Q: For `O=C(O)CCc1cccc(Oc2ccc(Oc3cccc4nccn34)cc2C(F)(F)F)c1` [Compound A-37, 3-[3-[4-imidazo[1,2-a]pyridin-5-yloxy-2-(trifluoromethyl)phenoxy]phenyl]propanoic acid], which IC50 is on record?
A: > 10 µM

Q: `Cc1ncc2c(Oc3ccc(Oc4cccc(CC(=O)O)c4)c(C(F)(F)F)c3)cccn12` [Compound B-4, 2-[3-[4-(3-methylimidazo[1,5-a]pyridin-8-yl)oxy-2-(trifluoromethyl)phenoxy]phenyl]acetic acid] was tested. Which IC50 did it give?
A: 5 to 10 µM

Q: `O=C(O)CCc1cccc(Oc2ccc(Oc3cccc4c3CNCC4)cc2C(F)(F)F)c1` [Compound A-43, 3-[3-[4-(1,2,3,4-tetrahydroisoquinolin-8-yloxy)-2-(trifluoromethyl)phenoxy]phenyl]propanoic acid] was tested. Which IC50 did it give?
A: > 10 µM

Q: For `O=C(O)Cc1cccc(Oc2ccc(Oc3cccc4ccnc(Cl)c34)cc2C(F)(F)F)c1` [Compound A-40, 2-[3-[4-[(1-chloro-8-isoquinolyl)oxy]-2-(trifluoromethyl)phenoxy]phenyl]acetic acid], which IC50 is on record?
A: < 5 µM

Q: Which IC50 does the source give for `O=C(O)Cc1cccc(Oc2ccc(Oc3cccc4nncn34)cc2C(F)(F)F)c1` [Compound A-17, 2-[3-[4-([1,2,4]triazolo[4,3-a]pyridin-5-yloxy)-2-(trifluoromethyl)phenoxy]phenyl]acetic acid] here?
A: > 10 µM

Q: Which IC50 does the source give for `O=C(O)Cc1cccc(Oc2ccc(Oc3ccc4ccn(C5COC5)c4c3)cc2C(F)(F)F)c1` [Compound A-20, 2-[3-[4-[1-(oxetan-3-yl)indol-6-yl]oxy-2-(trifluoromethyl)phenoxy]phenyl]acetic acid] here?
A: < 5 µM

Q: `O=C(O)CCc1cccc(Oc2ccc(Oc3cccc4cnccc34)cc2C(F)(F)F)c1` [Compound A-14, 3-[3-[4-(5-isoquinolyloxy)-2-(trifluoromethyl)phenoxy]phenyl]propanoic acid] was tested. Which IC50 did it give?
A: < 5 µM

Q: Which IC50 does the source give for `O=C(O)CCc1cccc(Oc2ccc(Oc3ccnc4ccccc34)cc2C(F)(F)F)c1` [Compound A-13, 3-[3-[4-(4-quinolyloxy)-2-(trifluoromethyl)phenoxy]phenyl]propanoic acid] here?
A: > 10 µM

Q: With `Cc1nc2ccc(Oc3ccc(Oc4cccc(CC(=O)O)c4)c(C4CC4)c3)cc2n1C1COC1` [Compound A-39, 2-[3-[2-cyclopropyl-4-[2-methyl-3-(oxetan-3-yl)benzimidazol-5-yl]oxy-phenoxy]phenyl]acetic acid] as the compound, how does the IC50 read?
A: < 5 µM

Q: With `Cn1cc2c(Oc3ccc(Oc4cccc(CC(=O)O)c4)c(C(F)(F)F)c3)cccc2n1` [Compound A-15, 2-[3-[4-(2-methylindazol-4-yl)oxy-2-(trifluoromethyl)phenoxy]phenyl]acetic acid] as the compound, how does the IC50 read?
A: < 5 µM

Q: For `O=C(O)CCc1cccc(Oc2ccc(Oc3cccc4c3OCCO4)cc2C(F)(F)F)c1` [Compound A-11, 3-[3-[4-(2,3-dihydro-1,4-benzodioxin-5-yloxy)-2-(trifluoromethyl)phenoxy]phenyl]propanoic acid], which IC50 is on record?
A: > 10 µM

Q: Which IC50 does the source give for `O=C(O)Cc1cccc(Oc2ccc(Oc3ccc4cnc(C(=O)O)n4c3)cc2C(F)(F)F)c1` [Compound A-31, 6-[4-[3-(carboxymethyl)phenoxy]-3-(trifluoromethyl)phenoxy]imidazo[1,5-a]pyridine-3-carboxylic acid] here?
A: < 5 µM

Q: `O=C(O)CCc1cccc(Oc2ccc(Oc3ccc4[nH]ncc4c3)cc2C(F)(F)F)c1` [Compound A-45, 3-[3-[4-(1H-indazol-5-yloxy)-2-(trifluoromethyl)phenoxy]phenyl]propanoic acid] was tested. Which IC50 did it give?
A: < 5 µM

Q: How did the IC50 turn out when `Cc1ncc2cccc(Oc3ccc(Oc4cccc(CC(=O)O)c4)c(C(F)(F)F)c3)n12` [Compound B-3, 2-[3-[4-(3-methylimidazo[1,5-a]pyridin-5-yl)oxy-2-(trifluoromethyl)phenoxy]phenyl]acetic acid] was run?
A: < 5 µM

Q: With `NC(=O)CCc1cccc(Oc2ccc(Oc3cccc4ccncc34)cc2C(F)(F)F)c1` [Compound C-2, 3-[3-[4-(8-isoquinolyloxy)-2-(trifluoromethyl)phenoxy]phenyl]propanamide] as the compound, how does the IC50 read?
A: 5 to 10 µM

Q: With `O=C(O)Cc1cccc(Oc2ccc(Oc3cccc4ccncc34)cc2C2CC2)c1` [Compound A-38, 2-[3-[2-cyclopropyl-4-(8-isoquinolyloxy)phenoxy]phenyl]acetic acid] as the compound, how does the IC50 read?
A: < 5 µM
